The data set can be described thus: solvent given as SMILES.

As for `[C-]#[N+]c1ccc(-c2ccc(N(C)C)cc2)cc1`, the emission maximum runs as follows: (in C1CCCCC1) 360 nm; (in C1CCOC1) 408 nm; (in C1COCCO1) 397 nm; (in CC#N) 429 nm; (in CC(C)=O) 422 nm; (in CCCCCC) 357 nm. The emission maximum (in CCOC(C)=O) stood at 406 nm; the emission maximum (in CN(C)C=O) was determined as 433 nm; the emission maximum (in CO) came out at 430 nm; the emission maximum (in CS(C)=O) worked out at 447 nm; the emission maximum (in Cc1ccccc1) stood at 387 nm; the emission maximum (in ClC(Cl)Cl) is 405 nm. In addition, the emission maximum by setting is: (in ClCCl) 412 nm; (in O) 417 nm; (in c1ccncc1) 422 nm.

With `COc1ccc2c3c(cccc13)C(=O)N(C)C2=O`, the emission maximum runs as follows: (in C1CCCCC1) 404 nm; (in C1CCOC1) 430 nm; (in CC#N) 434 nm; (in CC(C)CC(C)(C)C) 402 nm; (in CCCCCCCCCCCC) 402 nm; (in CCO) 444 nm. Besides, the emission maximum is, setting by setting: (in CN(C)C=O) 444 nm; (in CO) 450 nm; (in CS(C)=O) 452 nm; (in ClC(Cl)(Cl)Cl) 412 nm; (in O) 462 nm.

As to `COC(=O)c1[nH]c(-c2ccccc2)c2nnc3ccc(OC)cc3c12`, the emission maximum (in ClCCl) is 475 nm.

In the case of `C(/C=C/c1cc2c3c(c1)CCCN3CCC2)=C\c1ccncc1`, the emission maximum by setting is: (in C1COCCO1) 518 nm; (in CC#N) 569 nm; (in CCCCCCC) 442 nm; (in CO) 583 nm.

On to `Cc1cccc2ccccc12`, for which the emission maximum (in C1CCCCC1) came to 339.9 nm.

Turning to `CC1(C)C2=[N+](CCCCCC(=O)NCCNC(=O)CCCCCN3/C(=C/C=C/C=C/C=C/2)C(C)(C)c2cc(S(=O)(=O)[O-])ccc23)c2ccc(S(=O)(=O)[O-])cc21`, the emission maximum by setting is: (in CO) 778 nm; (in O) 770 nm.

Turning to `COc1ccc(-c2nc3c(c4c2-c2ccc(C#N)cc2CC4)-c2ccc(C#N)cc2CC3)cc1`, the emission maximum turned out to be 426 nm (in C1CCOC1); 430 nm (in CC#N); 420 nm (in CCCCCC); 423 nm (in CCOC(C)=O); 426 nm (in CO); 435 nm (in CS(C)=O). Besides, the emission maximum runs as follows: (in Cc1ccccc1) 422 nm; (in ClCCl) 425 nm.

In turn, `CCOC(=O)/C(C#N)=C\c1cn(-c2ccccc2)nc1-c1ccccc1` showed an emission maximum (in C1CCOC1) of 429 nm; an emission maximum (in C1COCCO1) of 408 nm; an emission maximum (in CCO) of 423 nm; an emission maximum (in CCOC(C)=O) of 427 nm; an emission maximum (in CN(C)C=O) of 434 nm; an emission maximum (in CO) of 434 nm. Besides, the emission maximum is, setting by setting: (in CS(C)=O) 440 nm; (in Cc1ccccc1) 407 nm; (in ClC(Cl)Cl) 431 nm; (in ClCCl) 428 nm.

`c1ccc(-c2nc(-c3ccccc3)nc(-n3c4ccccc4c4cc(-n5c6ccccc6c6ccccc65)cc(-n5c6ccccc6c6ccccc65)c43)n2)cc1`: the emission maximum is 482.53 nm (in C1CCOC1) and 465.06 nm (in Cc1ccccc1).

`Cn1c(=O)c(/N=N/c2ccc(S(=O)(=O)O)c3ccccc23)c(O)c2ccccc21`: the emission maximum by setting is: (in C1CCOC1) 548 nm; (in CC(C)=O) 564 nm; (in CCOC(C)=O) 555 nm; (in CO) 562 nm; (in CS(C)=O) 571 nm; (in Cc1ccccc1) 540 nm. Also, the emission maximum runs as follows: (in ClCCl) 541 nm; (in O) 582 nm.

Regarding `CCC(C)(C)c1ccc(-c2ccc3c(c2)C(CCOC)(CCOC)c2cc(C(C)(C)CC)ccc2-3)cc1`, for the setting “in C1CCCCC1”, the emission maximum stood at 360 nm.

On to `COc1ccc2cc(-c3ccc(C)cc3)c(=O)oc2c1`, for which the emission maximum is, setting by setting: (in C1CCOC1) 424 nm; (in CCCCCC) 414 nm; (in CCO) 429 nm; (in CS(C)=O) 431 nm.

Take `COc1ccc(C#Cc2nc3ccccc3nc2-c2csc(OC)c2)cc1`: the emission maximum (in ClCCl) came to 508 nm.

`c1cc2c3c(c1)OCCCCCCOc1cccc(c1-c1c4ccccc4c-3c3ccccc13)OCCCCCCO2` displayed an emission maximum (in C1CCCCC1) of 429 nm.

In turn, `c1ccc2c(c1)-c1ccccc1C21c2ccccc2-c2ncccc21` registered an emission maximum (in CC1CCCO1) of 333 nm.

For `C(=C\c1c2ccccc2cc2ccccc12)/c1cnc2ccccc2c1`, the emission maximum reads like this: (in CC1CCCCC1) 488 nm; (in CC#N) 494 nm.

In the case of `Cc1nc(-c2ccccc2)c2ccccn12`, the emission maximum is, setting by setting: (in C1CCCCC1) 475 nm; (in CC#N) 467 nm; (in CO) 473 nm; (in ClCCl) 485 nm; (in O) 470 nm.

As to `CCCCCCCCCCCCn1cccc1/C=C/c1ccc(OCCCC)c2c(/C=C/c3cccn3CCCCCCCCCCCC)ccc(OCCCC)c12`, the emission maximum (in Cc1ccccc1) turned out to be 490 nm.

In turn, `Cc1ccc2nc(-c3cccc4nc(C)[nH]c(=O)c34)oc2c1` showed an emission maximum (in CN(C)C=O) of 410 nm.

Consider `FC(F)(F)c1ccc2oc3nc4oc5ccc(N(c6ccccc6)c6ccccc6)cc5c4cc3c2c1`, for which, for the setting “in ClC(Cl)Cl”, the emission maximum turned out to be 487 nm.

`F[B-]1(F)n2c(Cl)c(Cl)c(Br)c2C(Oc2ccccc2)=C2C(Br)=C(Cl)C(Cl)=[N+]21` registered an emission maximum (in ClCCl) of 541 nm.

As for `C(=C\c1ccc(N(c2ccccc2)c2ccccc2)cc1)/c1ccc(-c2cc(-c3ccccn3)nc(-c3ccccn3)c2)cc1`, the emission maximum by setting is: (in C1CCOC1) 502 nm; (in C1COCCO1) 466 nm; (in CC#N) 560 nm; (in CCO) 556 nm; (in ClCCl) 519 nm.

As to `CN(c1ccccc1)c1ccc(-c2ccc(-c3ccc(N(C)c4ccccc4)cc3)c3nc(-c4ccccc4)c(-c4ccccc4)nc23)cc1`, the emission maximum was 638 nm (in C1CCOC1); 659 nm (in CC#N); 598 nm (in CCCCCC); 661 nm (in CN(C)C=O); 627 nm (in Cc1ccccc1); 640 nm (in ClC(Cl)Cl).

Molecule `Clc1ccc(N2c3sc4ccccc4c3Sc3sc4ccccc4c32)cc1` returned an emission maximum (in ClCCl) of 563 nm.

In turn, `Oc1ccc2ccccc2c1C1Nc2cccc3cccc(c23)N1` displayed an emission maximum (in CC#N) of 540 nm, an emission maximum (in CO) of 476 nm, an emission maximum (in CS(C)=O) of 528 nm and an emission maximum (in Cc1ccccc1) of 468 nm.

Regarding `CN1c2ccccc2C(O)(c2ccccc2)c2cc([N+](=O)[O-])ccc21` (stereo not given), the emission maximum is recorded as 501.3 nm (in C1CCOC1); 557 nm (in CC#N); 536.2 nm (in CCO); 544.7 nm (in CO); 566.8 nm (in CS(C)=O); 480.7 nm (in Cc1ccccc1).

`N#Cc1cc2nc3c(nc2cc1C#N)C1c2ccc(N(c4ccccc4)c4ccccc4)cc2C3c2ccc(N(c3ccccc3)c3ccccc3)cc21` registered an emission maximum (in C1CCCCC1) of 487 nm, an emission maximum (in CC#N) of 492 nm, an emission maximum (in Cc1ccccc1) of 552 nm and an emission maximum (in ClCCl) of 497 nm.

For the setting “in CS(C)=O”, `CCCCN1/C(=C/C=C/C2=[N+](C)c3ccccc3C2(C)C)C(C)(C)c2c1ccc1ccccc21` had an emission maximum of 586 nm.

Turning to `CC1(C)Oc2c(c3nc4ccccc4nc3c3ccccc23)CC1Br` (stereo not given), the emission maximum was 431.03 nm (in C1CCCCC1); 448.83 nm (in C1CCOC1); 449.44 nm (in C1COCCO1); 457.04 nm (in CC#N); 464.25 nm (in CC(C)O); 430.66 nm (in CCCCCC). Besides, the emission maximum reads like this: (in CN(C)C=O) 458.3 nm; (in CO) 475.96 nm; (in c1ccccc1) 444.25 nm.

`O=c1cc2c(-c3c(O)c4cccc5ccc6oc(=O)cc3c6c54)c(O)c3cccc4ccc(o1)c2c43`: the emission maximum (in CC1CCCO1) is reported as 552 nm.

Consider `CC1=C(C)C(c2c(C)c(C)c3n2[B-](F)(F)[N+]2=C(C)C(C)=C(C)C2=C3)=[N+]2C1=Cc1c(C)c(C)c(C)n1[B-]2(F)F`, for which the emission maximum (in ClCCl) is listed as 650 nm.

Regarding `CCN1c2ccc(C3=CC(c4ccccc4)=[O+][B-](F)(F)O3)cc2Sc2cc(C3=CC(c4ccccc4)=[O+][B-](F)(F)O3)ccc21`, under “in ClCCl”, the emission maximum is on record as 639 nm.

In the case of `COc1ccc(C2=C3C=C(/C=C/C(=O)OC(C)(C)C)C=[N+]3[B-](F)(F)n3cccc32)cc1`, the emission maximum (in ClCCl) was 572 nm.

Consider `COc1ccc(C2=c3sc(-c4ccc(OC)cc4)c(-c4ccc(OC)cc4)c3=[N+]3C2=Nc2c(-c4ccc(OC)cc4)c4sc(-c5ccc(OC)cc5)c(-c5ccc(OC)cc5)c4n2[B-]3(F)F)cc1`, for which, for the setting “in ClC(Cl)Cl”, the emission maximum came to 816 nm.

In the case of `CC(C)(C)c1ccc2c(c1)c1cc(C(C)(C)C)ccc1n2-c1ccccc1-c1nc(-c2ccccc2-n2c3ccc(C(C)(C)C)cc3c3cc(C(C)(C)C)ccc32)nc(-c2ccccc2P(=O)(c2ccccc2)c2ccccc2)n1`, the emission maximum runs as follows: (in C1CCOC1) 512.54 nm; (in CC#N) 546.04 nm; (in CC(C)=O) 533.4 nm; (in CN(C)C=O) 546.04 nm; (in Cc1ccccc1) 493.22 nm; (in ClC(Cl)Cl) 516.24 nm. In addition, the emission maximum is, setting by setting: (in ClCCl) 529.29 nm; (in O=P(c1ccccc1)(c1ccccc1)c1ccccc1Oc1ccccc1P(=O)(c1ccccc1)c1ccccc1) 500 nm.

The values are drawn from the Deep4Chem optical property database.
